Data on eight compounds can be found in ChEMBL document CHEMBL1955750, “Benzodiazepines and benzotriazepines as protein interaction inhibitors targeting bromodomains of the BET family” (Bioorg Med Chem, 2012).

Active and inactive are the calls of the source. No cut-off for these calls is given here.

Assay [1] deals with Bromodomain-containing protein 2 (Homo sapiens) (UniProt P25440). Kind of assay: Binding affinity to BRD2-BD1 assessed as change in melting temperature at 10 uM by protein stability shift assay.
Sequence of Bromodomain-containing protein 2 (Homo sapiens) (P25440 whole entry, looked up): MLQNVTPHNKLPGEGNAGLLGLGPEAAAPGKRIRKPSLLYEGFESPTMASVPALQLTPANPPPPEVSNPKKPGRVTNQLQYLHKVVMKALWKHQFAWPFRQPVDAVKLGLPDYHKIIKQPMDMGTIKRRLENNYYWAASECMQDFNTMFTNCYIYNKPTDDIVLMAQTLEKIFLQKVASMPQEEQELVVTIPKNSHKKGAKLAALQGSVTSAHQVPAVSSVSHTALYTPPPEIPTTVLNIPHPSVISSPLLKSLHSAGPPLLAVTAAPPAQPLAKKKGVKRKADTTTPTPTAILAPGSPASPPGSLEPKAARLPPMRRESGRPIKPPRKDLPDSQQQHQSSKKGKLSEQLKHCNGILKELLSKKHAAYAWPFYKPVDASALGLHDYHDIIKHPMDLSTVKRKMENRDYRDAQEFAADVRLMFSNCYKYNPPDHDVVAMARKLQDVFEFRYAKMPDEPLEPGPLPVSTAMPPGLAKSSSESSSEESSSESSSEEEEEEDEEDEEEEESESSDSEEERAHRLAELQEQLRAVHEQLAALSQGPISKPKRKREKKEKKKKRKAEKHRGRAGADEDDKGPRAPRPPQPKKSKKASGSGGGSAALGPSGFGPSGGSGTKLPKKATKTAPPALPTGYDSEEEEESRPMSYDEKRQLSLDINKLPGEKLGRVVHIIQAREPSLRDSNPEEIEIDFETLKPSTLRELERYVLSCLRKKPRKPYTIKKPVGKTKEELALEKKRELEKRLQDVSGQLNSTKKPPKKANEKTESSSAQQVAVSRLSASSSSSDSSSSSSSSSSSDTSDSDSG
Assay [2] deals with Bromodomain-containing protein 3 (Homo sapiens) (UniProt Q15059). As to the kind of experiment: Binding affinity to BRD3-BD1 assessed as change in melting temperature at 10 uM by protein stability shift assay.
Sequence of Bromodomain-containing protein 3 (Homo sapiens) (Q15059 2-726 limits assumed): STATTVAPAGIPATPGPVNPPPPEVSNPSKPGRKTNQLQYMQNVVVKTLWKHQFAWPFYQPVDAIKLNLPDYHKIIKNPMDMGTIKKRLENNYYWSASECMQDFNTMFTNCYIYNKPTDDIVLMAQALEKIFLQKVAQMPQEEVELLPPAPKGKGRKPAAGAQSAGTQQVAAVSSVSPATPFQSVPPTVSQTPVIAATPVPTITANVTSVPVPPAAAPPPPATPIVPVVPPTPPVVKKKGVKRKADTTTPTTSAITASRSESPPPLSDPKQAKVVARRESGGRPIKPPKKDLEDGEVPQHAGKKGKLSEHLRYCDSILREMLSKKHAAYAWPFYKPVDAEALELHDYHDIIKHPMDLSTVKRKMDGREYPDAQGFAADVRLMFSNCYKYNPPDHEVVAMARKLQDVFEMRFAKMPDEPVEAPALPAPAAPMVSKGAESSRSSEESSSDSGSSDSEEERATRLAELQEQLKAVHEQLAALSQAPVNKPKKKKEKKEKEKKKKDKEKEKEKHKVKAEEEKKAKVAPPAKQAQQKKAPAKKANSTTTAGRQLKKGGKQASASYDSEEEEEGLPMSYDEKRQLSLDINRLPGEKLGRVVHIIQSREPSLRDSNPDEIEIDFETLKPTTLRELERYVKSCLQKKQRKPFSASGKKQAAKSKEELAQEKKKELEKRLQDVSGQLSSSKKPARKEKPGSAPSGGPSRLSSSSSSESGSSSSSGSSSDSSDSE
The target of assay [3] is T1, Bromodomain-containing protein 4 (Homo sapiens, UniProt O60885). Kind of assay: Binding affinity to BRD4-BD1 assessed as change in melting temperature at 10 uM by protein stability shift assay.
Assay [4] has as its target Bromodomain testis-specific protein (Homo sapiens) (UniProt Q58F21). Kind of assay: Binding affinity to BRDT-BD1 assessed as change in melting temperature at 10 uM by protein stability shift assay.
In assay [5] the target is Bromodomain adjacent to zinc finger domain protein 2B (Homo sapiens) (UniProt Q9UIF8). As to the kind of experiment: Binding affinity to BAZ2B assessed as change in melting temperature at 10 uM by protein stability shift assay.
Assay [6] deals with CREB-binding protein (Homo sapiens) (UniProt Q92793). As to the kind of experiment: Binding affinity to CREBBP assessed as change in melting temperature at 10 uM by protein stability shift assay.
Sequence of CREB-binding protein (Homo sapiens) (Q92793 2-2442 limits assumed): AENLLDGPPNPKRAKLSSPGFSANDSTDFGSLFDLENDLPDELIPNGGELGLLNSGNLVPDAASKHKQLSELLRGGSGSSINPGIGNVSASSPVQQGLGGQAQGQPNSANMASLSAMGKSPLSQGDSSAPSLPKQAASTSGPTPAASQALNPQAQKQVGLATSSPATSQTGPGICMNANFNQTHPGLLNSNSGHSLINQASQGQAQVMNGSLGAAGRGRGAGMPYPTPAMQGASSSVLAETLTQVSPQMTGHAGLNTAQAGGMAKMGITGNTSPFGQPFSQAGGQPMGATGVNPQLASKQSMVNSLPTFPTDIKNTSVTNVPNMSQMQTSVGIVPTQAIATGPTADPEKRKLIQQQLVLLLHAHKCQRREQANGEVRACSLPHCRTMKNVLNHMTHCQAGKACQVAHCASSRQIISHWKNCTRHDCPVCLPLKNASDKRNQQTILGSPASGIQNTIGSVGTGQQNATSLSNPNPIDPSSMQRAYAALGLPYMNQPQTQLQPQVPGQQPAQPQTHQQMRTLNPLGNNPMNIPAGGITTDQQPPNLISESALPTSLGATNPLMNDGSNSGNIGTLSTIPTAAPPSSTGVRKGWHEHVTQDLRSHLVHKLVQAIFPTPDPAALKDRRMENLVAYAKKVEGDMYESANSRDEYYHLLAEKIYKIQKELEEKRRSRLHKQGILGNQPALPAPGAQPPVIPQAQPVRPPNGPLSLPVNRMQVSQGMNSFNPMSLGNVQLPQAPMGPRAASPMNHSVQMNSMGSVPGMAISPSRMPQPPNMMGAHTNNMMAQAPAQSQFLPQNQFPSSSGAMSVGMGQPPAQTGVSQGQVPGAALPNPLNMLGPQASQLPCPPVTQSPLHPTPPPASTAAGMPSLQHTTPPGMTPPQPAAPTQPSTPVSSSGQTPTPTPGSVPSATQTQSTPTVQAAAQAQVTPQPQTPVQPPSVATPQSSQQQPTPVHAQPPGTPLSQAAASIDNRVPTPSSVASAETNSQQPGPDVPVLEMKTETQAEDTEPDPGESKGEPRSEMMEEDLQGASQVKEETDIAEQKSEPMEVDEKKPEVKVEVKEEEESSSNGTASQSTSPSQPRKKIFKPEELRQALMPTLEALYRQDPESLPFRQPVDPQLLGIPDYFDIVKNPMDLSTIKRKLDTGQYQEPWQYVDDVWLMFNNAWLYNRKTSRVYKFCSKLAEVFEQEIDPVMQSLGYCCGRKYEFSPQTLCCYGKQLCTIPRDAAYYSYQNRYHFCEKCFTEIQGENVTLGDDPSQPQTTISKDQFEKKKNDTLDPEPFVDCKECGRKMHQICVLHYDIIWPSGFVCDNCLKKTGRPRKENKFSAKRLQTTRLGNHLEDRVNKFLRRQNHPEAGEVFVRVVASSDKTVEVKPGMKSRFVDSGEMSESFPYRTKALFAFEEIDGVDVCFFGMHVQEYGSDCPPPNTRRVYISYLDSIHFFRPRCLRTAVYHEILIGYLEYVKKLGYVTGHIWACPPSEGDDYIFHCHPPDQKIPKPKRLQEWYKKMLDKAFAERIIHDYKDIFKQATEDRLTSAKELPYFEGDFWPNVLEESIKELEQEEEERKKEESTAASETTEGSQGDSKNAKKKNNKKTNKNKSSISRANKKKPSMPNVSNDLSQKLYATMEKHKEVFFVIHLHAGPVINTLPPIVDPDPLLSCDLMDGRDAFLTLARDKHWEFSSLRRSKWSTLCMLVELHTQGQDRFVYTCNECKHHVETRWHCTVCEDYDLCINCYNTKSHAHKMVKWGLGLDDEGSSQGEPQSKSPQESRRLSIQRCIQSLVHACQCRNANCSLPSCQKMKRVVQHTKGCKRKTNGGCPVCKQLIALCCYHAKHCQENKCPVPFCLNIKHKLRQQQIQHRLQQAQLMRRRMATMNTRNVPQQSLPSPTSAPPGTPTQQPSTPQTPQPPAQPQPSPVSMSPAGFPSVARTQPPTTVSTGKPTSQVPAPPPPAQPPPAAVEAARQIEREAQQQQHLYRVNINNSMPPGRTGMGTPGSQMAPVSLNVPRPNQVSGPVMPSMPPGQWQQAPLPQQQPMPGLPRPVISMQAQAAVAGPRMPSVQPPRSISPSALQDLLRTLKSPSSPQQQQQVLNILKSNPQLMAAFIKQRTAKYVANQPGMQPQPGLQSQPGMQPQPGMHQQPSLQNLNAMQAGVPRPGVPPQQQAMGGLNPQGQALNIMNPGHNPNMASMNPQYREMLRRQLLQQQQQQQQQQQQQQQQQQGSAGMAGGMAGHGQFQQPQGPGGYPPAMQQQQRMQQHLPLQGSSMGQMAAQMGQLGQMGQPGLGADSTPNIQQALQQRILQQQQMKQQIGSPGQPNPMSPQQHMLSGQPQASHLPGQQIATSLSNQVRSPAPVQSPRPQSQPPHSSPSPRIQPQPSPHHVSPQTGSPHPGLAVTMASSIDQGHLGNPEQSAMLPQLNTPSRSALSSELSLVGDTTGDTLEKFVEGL
The nature of assay [7]: Binding affinity to LOC93349 assessed as change in melting temperature at 10 uM by protein stability shift assay.
Assay [8] deals with Protein polybromo-1 (Homo sapiens) (UniProt Q86U86). Kind of assay: Binding affinity to PB1 assessed as change in melting temperature at 10 uM by protein stability shift assay.
Assay [9] concerns the target Histone acetyltransferase KAT2B (Homo sapiens) (UniProt Q92831). As to the kind of experiment: Binding affinity to PCAF assessed as change in melting temperature at 10 uM by protein stability shift assay.
Assay [10] has as its target Bromodomain-containing protein 2 (Homo sapiens) (UniProt P25440). Kind of assay: Binding affinity to BRD2-BD2 assessed as change in melting temperature at 10 uM by protein stability shift assay.
The target in assay [11] is Bromodomain-containing protein 3 (Homo sapiens) (UniProt Q15059). As to the kind of experiment: Binding affinity to BRD3-BD2 assessed as change in melting temperature at 10 uM by protein stability shift assay.
In assay [12] the target is T1, Bromodomain-containing protein 4. As to the kind of experiment: Binding affinity to BRD4-BD2 assessed as change in melting temperature at 10 uM by protein stability shift assay.
In assay [13] the target is Bromodomain-containing protein 2 (Homo sapiens) (UniProt P25440). Kind of assay: Binding affinity to BRD2-BD1 assessed as change in melting temperature at 100 uM by protein stability shift assay.
Assay [14] deals with Bromodomain-containing protein 3 (Homo sapiens) (UniProt Q15059). Kind of assay: Binding affinity to BRD3-BD1 assessed as change in melting temperature at 100 uM by protein stability shift assay.
Assay [15] concerns the target T1, Bromodomain-containing protein 4. Kind of assay: Binding affinity to BRD4-BD1 assessed as change in melting temperature at 100 uM by protein stability shift assay.
In assay [16] the target is Bromodomain testis-specific protein (Homo sapiens) (UniProt Q58F21). As to the kind of experiment: Binding affinity to BRDT-BD1 assessed as change in melting temperature at 100 uM by protein stability shift assay.
In assay [17] the target is Bromodomain adjacent to zinc finger domain protein 2B (Homo sapiens) (UniProt Q9UIF8). Kind of assay: Binding affinity to BAZ2B assessed as change in melting temperature at 100 uM by protein stability shift assay.
Assay [18] deals with CREB-binding protein (Homo sapiens) (UniProt Q92793). Kind of assay: Binding affinity to CREBBP assessed as change in melting temperature at 100 uM by protein stability shift assay.
A short description of assay [19]: Binding affinity to LOC93349 assessed as change in melting temperature at 100 uM by protein stability shift assay.
Assay [20] concerns the target Protein polybromo-1 (Homo sapiens) (UniProt Q86U86). As to the kind of experiment: Binding affinity to PB1 assessed as change in melting temperature at 100 uM by protein stability shift assay.
In assay [21] the target is Histone acetyltransferase KAT2B (Homo sapiens) (UniProt Q92831). As to the kind of experiment: Binding affinity to PCAF assessed as change in melting temperature at 100 uM by protein stability shift assay.
Sequence of Histone acetyltransferase KAT2B (Homo sapiens) (Q92831 whole entry, looked up): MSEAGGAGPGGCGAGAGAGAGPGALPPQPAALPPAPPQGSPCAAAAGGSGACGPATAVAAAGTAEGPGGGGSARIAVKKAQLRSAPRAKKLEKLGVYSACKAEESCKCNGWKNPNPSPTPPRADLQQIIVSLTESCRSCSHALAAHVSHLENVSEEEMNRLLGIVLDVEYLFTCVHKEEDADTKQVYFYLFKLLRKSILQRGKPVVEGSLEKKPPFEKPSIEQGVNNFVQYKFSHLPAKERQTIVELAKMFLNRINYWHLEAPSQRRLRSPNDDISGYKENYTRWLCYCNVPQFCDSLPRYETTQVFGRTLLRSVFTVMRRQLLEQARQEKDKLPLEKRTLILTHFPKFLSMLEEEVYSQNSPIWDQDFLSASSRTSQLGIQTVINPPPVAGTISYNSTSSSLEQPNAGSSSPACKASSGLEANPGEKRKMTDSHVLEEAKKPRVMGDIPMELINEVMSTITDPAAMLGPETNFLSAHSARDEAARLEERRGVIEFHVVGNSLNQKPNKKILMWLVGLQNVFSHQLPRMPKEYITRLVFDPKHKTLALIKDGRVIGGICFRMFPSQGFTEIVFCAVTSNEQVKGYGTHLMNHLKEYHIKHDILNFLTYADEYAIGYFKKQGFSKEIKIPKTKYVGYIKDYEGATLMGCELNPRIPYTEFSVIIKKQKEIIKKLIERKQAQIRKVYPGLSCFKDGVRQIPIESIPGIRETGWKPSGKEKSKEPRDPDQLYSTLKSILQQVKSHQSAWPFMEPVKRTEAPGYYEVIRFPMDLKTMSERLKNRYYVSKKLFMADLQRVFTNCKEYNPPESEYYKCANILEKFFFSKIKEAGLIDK
The target of assay [22] is Bromodomain-containing protein 2 (Homo sapiens) (UniProt P25440). As to the kind of experiment: Binding affinity to BRD2-BD2 assessed as change in melting temperature at 100 uM by protein stability shift assay.
Assay [23] has as its target Bromodomain-containing protein 3 (Homo sapiens) (UniProt Q15059). As to the kind of experiment: Binding affinity to BRD3-BD2 assessed as change in melting temperature at 100 uM by protein stability shift assay.
Assay [24] concerns the target T1, Bromodomain-containing protein 4. As to the kind of experiment: Binding affinity to BRD4-BD2 assessed as change in melting temperature at 100 uM by protein stability shift assay.
For assay [25] the target is unchanged.
Description: Binding affinity to BRD4-BD1 assessed as change in melting temperature by isothermal titration calorimetry

Turning to `Cc1ncc2n1-c1ccc(Cl)cc1C(c1ccccc1F)=NC2`, the result in assay [1], in assay [2], in [3], in [4], in assay [6] and in [10] was Active. Besides, the result in assay [11] and in assay [12] was Active. Also, the outcome in [5], in assay [7], in [8] and in [9] was inactive.

In general, ΔTm refers to the shift of the melting midpoint relative to a reference. In the case of `Cc1nnc2n1-c1ccc(Cl)cc1C(c1ccccc1)=NN2C`, the shift in melting temperature (ΔTm) in assay [13], in assay [14], in assay [15], in assay [16], in [17] and in assay [18] was less than 2 °C each time. Further, the thermal shift (ΔTm) in assay [19], in assay [20], in assay [21], in assay [22], in assay [23] and in assay [24] was less than 2 °C throughout. In [25], the ΔTm worked out at 4.2 °C. Moreover, the outcome in assay [1], in assay [2], in [3], in assay [4], in assay [6] and in assay [7] was Active. Besides, the outcome in [8], in assay [9], in assay [10], in assay [11] and in [12] was Active. For the same compound, the result in assay [5] was inactive.

On to `CCOC(=O)c1ncn2c1[C@@H]1CCCN1C(=O)c1cc(OC)ccc1-2`, for which the outcome in assay [1], in [2], in assay [3] and in [12] was Active. Moreover, the result in [4], in assay [5], in assay [6], in assay [7], in assay [8] and in assay [9] was inactive. In addition, the result in [10] and in [11] was inactive.

Regarding `Cc1nnc2n1-c1ccc(Cl)cc1C(c1ccccc1)=NC2` [ALPRAZOLAM], the outcome in [1], in assay [2], in assay [3], in assay [4], in assay [6] and in assay [8] was Active. The result in assay [10], in assay [11] and in assay [12] was Active. The outcome in assay [5], in assay [7] and in assay [9] was inactive. In addition, the thermal shift (ΔTm) in assay [25] is 4.7 °C.

Turning to `CCC1=NCC(=S)Nc2ccc(Cl)cc21`, the ΔTm in [13], in assay [14], in assay [15], in assay [16], in assay [17] and in assay [18] was less than 2 °C throughout. For the same compound, the shift in melting temperature (ΔTm) in assay [19], in assay [20], in assay [21], in assay [22], in [23] and in assay [24] was less than 2 °C each time.

With `CN1N=C(c2ccccc2)c2cc(Cl)ccc2NC1=S`, the thermal shift (ΔTm) in assay [13], in assay [14], in assay [15], in assay [16], in assay [17] and in [18] was less than 2 °C throughout. Also, the ΔTm in assay [19], in assay [20], in [21], in assay [22], in assay [23] and in assay [24] was less than 2 °C throughout.

As for `CCC1=NCc2nnc(-c3ccncc3)n2-c2ccc(Cl)cc21`, the ΔTm in assay [13], in assay [14], in assay [15], in [16], in [17] and in assay [18] was less than 2 °C in each case. Moreover, the thermal shift (ΔTm) in assay [19], in assay [20], in assay [21], in assay [22], in assay [23] and in assay [24] was less than 2 °C in each case.

As to `Clc1ccc2c(c1)C(c1ccccc1)=NCc1nncn1-2`, the result in [1], in assay [4], in assay [5], in assay [7], in [8] and in assay [9] was inactive. In addition, the outcome in [10] was inactive. Besides, the outcome in [2], in [3], in [6], in [11] and in assay [12] was Active.
